Test results reported in US20260242438A1 (INSTITUTE OF MATERIA MEDICA, CHINESE ACADEMY OF MEDICAL …, priority 2022, published 2026).
Where a SMILES comes first, the peptide text is derived from it. Bridges are numbered along the chain shown (N, C = ends).

Biological target: chymotrypsin (Bos taurus, UniProt P00766)
Test: Determination of enzyme inhibitory activity against chymotrypsin (substrate AAPFpNA, OD 405 nm)
Type: biochemical
Conditions: for IC50: chymotrypsin 30 nM, AAPFpNA 0.5 mM, pH 7.8, 37° C.; for remaining activity at 0.0001 µM: peptide 0.0001 μM; for remaining activity at 0.001 µM: peptide 0.001 μM; for remaining activity at 0.01 µM: peptide 0.01 μM; for remaining activity at 0.02 µM: peptide 0.02 μM; for remaining activity at 0.04 µM: peptide 0.04 μM; for remaining activity at 0.08 µM: peptide 0.08 μM; for remaining activity at 0.1 µM: peptide 0.1 μM; for remaining activity at 1 µM: peptide 1 μM; for remaining activity at 10 µM: peptide 10 μM; for remaining activity at 0.25 µM: peptide 0.25 μM; for remaining activity at 0.5 µM: peptide 0.5 μM; for remaining activity at 100 µM: peptide 100 μM; for remaining activity at 0.05 µM: peptide 0.05 μM
Method: The substrates N-succinyl-Ala-Ala-Pro-Phe-p-nitroaniline (AAPFpNA) is used in competitive binding reaction to determine the inhibitory activities against α -chymotrypsin. Experiments for a-chymotrypsin was measured in 20 mM CaCl2, 50 mM Tris-HCl buffer (pH 7.8). The concentration of the peptide was measured using optical density (OD) at 280 nm. The Michaelis constant (Km) of the enzyme hydrolysis substrate is calculated from the initial rate of substrate hydrolysis at 405 nm. The absorbance value of the substrate was measured at 405 nm after complete hydrolysis. All data were processed using nonlinear regression.
(1) Added a total 190 μL of reaction buffer (20 mM CaCl2, 50 mM Tris-HCl (pH 7.8)), different concentrations of anti-chymorypsin peptides (CHs) into the pre-cold 96 well plate, followed by preheating at 37° C. for 5 min and centrifugated at 500 rpm for 1 min and allowed to stand for 4 minutes. Then added 8 μL of 750 nM chymotrypsin and incubated at 37° C. for 10 min, and centrifugated at 500 rpm for 1 min and allowed to stand for 9 minutes. Finally, added 2 μL of 50 mM AAPFpNA, and mixed by centrifugation at 500 rpm for 1 min. The plate was incubated at 37° C. for 90 min, and the absorbance value at 405 nm was measured. Three repetitions were made, and only reaction buffer and substrate were added in the blank control as the minimum absorption value (Min OD 405 nm); Only reaction buffer, enzyme and substrate were added in the negative control as the maximum absorption value (Max OD 405 nm).
(2) In the 200 μL of reaction system, the final concentrations of chymotrypsin and AAPFpNA were 30 nM and 0.5 mM, respectively.
Plotted the residual activity of enzyme with […] to obtain the half inhibitory concentration (IC50) of anti-chymorypsin peptides (CHs). Then, substituted it into the formula […]/(1+S/Km) (S, IC50, and Km were substrate concentration, half inhibitory concentration, and Michaelis constant, respectively) to obtain the inhibition constant Ki of anti-chymorypsin peptides (CHs).

[1] = read-out: Residual activity of chymotrypsin

| Ki | IC50 | remaining activity at 0.0001 µM [1] | remaining activity at 0.001 µM [1] | remaining activity at 0.01 µM [1] | remaining activity at 0.02 µM [1] | remaining activity at 0.04 µM [1] | remaining activity at 0.08 µM [1] | remaining activity at 0.1 µM [1] | remaining activity at 1 µM [1] | remaining activity at 10 µM [1] | remaining activity at 0.015 µM (peptide 0.015 μM, read-out: Residual activity of chymotrypsin) | IC50 reduced (fold) (relative to CH55) | remaining activity at 0.06 µM (peptide 0.06 μM, read-out: Residual activity of chymotrypsin) | remaining activity at 0.25 µM [1] | remaining activity at 0.5 µM [1] | remaining activity at 100 µM [1] | remaining activity at 0.05 µM [1] | Compound |
| --- | --- | --- | --- | --- | --- | --- | --- | --- | --- | --- | --- | --- | --- | --- | --- | --- | --- | --- |
| 10 nM | 30 nM | 100.6 ± 0.9% | 101.7 ± 0.6% | 100 ± 2.9% | 68.8 ± 4% | 34.2 ± 3.9% | 15.2 ± 1.9% | 13.8 ± 3.3% | 0.4 ± 0.2% | -0.1% | – | – | – | – | – | – | – | CC[C@H](C)[C@@H]1NC(=O)[C@@H]2CCCN2C(=O)[C@@H]2CCCN2C(=O)[C@H]([C@@H](C)CC)NC(=O)[C@H](CO)NC(=O)[C@H](Cc2ccccc2)NC(=O)[C@H]([C@@H](C)O)NC(=O)[C@@H](NC(=O)[C@H](CCCNC(=N)N)NC(=O)CN)CSSC[C@@H](C(=O)N[C@@H](Cc2ccccc2)C(=O)N2CCC[C@H]2C(=O)N[C@@H](CC(=O)O)C(=O)O)NC1=O [CH54] (H-GRCTFSIPPICFPD-OH; disulfide 3-11; C-terminus assumed) |
| 8.6 nM | 20 nM | 102.1 ± 1% | 101.6 ± 0.9% | – | 45.8 ± 10% | 21.8 ± 4.2% | 11.6 ± 1.2% | 8 ± 2.4% | 0.9 ± 0.1% | 0.1% | 68.1 ± 3.7% | – | – | – | – | – | – | CC[C@H](C)[C@@H]1NC(=O)[C@@H]2CCCN2C(=O)[C@@H]2CCCN2C(=O)[C@H]([C@@H](C)CC)NC(=O)[C@H](CO)NC(=O)[C@H](Cc2ccc(O)cc2)NC(=O)[C@H]([C@@H](C)O)NC(=O)[C@@H](NC(=O)[C@H](CCCNC(=N)N)NC(=O)CN)CSSC[C@@H](C(=O)N[C@@H](Cc2ccccc2)C(=O)N2CCC[C@H]2C(=O)N[C@@H](CC(=O)O)C(=O)O)NC1=O [CH55] (H-GRCTYSIPPICFPD-OH; disulfide 3-11; C-terminus assumed) |
| 270 nM | 620 nM | – | – | – | – | – | – | – | – | – | – | 30 times | – | – | – | – | – | CC[C@H](C)[C@@H]1NC(=O)[C@@H]2CCCN2C(=O)[C@@H]2CCCN2C(=O)[C@H]([C@@H](C)CC)NC(=O)[C@H](CO)NC(=O)[C@H](Cc2ccc(O)cc2)NC(=O)[C@H]([C@@H](C)O)NC(=O)[C@@H](NC(=O)[C@H](CCCNC(=N)N)NC(=O)CN)CSSC[C@@H](C(=O)N[C@@H](Cc2ccccc2)C(=O)N2CCC[C@H]2C(=O)O)NC1=O [CH56] (H-GRCTYSIPPICFP-OH; disulfide 3-11; C-terminus assumed) |
| 20 nM | 40 nM | 99 ± 1.3% | 100.2 ± 0.3% | 98 ± 5.1% | 66 ± 7.5% | 48.4 ± 5.8% | 19.1 ± 4.6% | – | 0.9 ± 0.3% | -0.2 ± 0.2% | – | – | 38.1 ± 7.9% | – | – | – | – | CC[C@H](C)[C@@H]1NC(=O)[C@@H]2CCCN2C(=O)[C@@H]2CCCN2C(=O)[C@H]([C@@H](C)CC)NC(=O)[C@H](CO)NC(=O)[C@H](Cc2ccc(O)cc2)NC(=O)[C@H]([C@@H](C)O)NC(=O)[C@@H](NC(=O)[C@H](CCCNC(=N)N)NC(=O)CN)CSSC[C@@H](C(=O)N[C@@H](Cc2ccccc2)C(=O)O)NC1=O [CH57] (H-GRCTYSIPPICF-OH; disulfide 3-11; C-terminus assumed) |
| 120 nM | 270 nM | – | – | – | – | – | – | – | – | – | – | – | – | – | – | – | – | CC[C@H](C)[C@@H]1NC(=O)[C@@H]2CCCN2C(=O)[C@@H]2CCCN2C(=O)[C@H]([C@@H](C)CC)NC(=O)[C@H](CO)NC(=O)[C@H](Cc2ccc(O)cc2)NC(=O)[C@H]([C@@H](C)O)NC(=O)[C@@H](NC(=O)[C@@H](N)CCCNC(=N)N)CSSC[C@@H](C(=O)N[C@@H](Cc2ccccc2)C(=O)O)NC1=O [CH58] (H-RCTYSIPPICF-OH; disulfide 2-10; C-terminus assumed) |
| 80 nM | 180 nM | – | – | – | – | – | – | – | – | – | – | – | – | – | – | – | – | CC[C@H](C)[C@@H]1NC(=O)[C@@H]2CCCN2C(=O)[C@@H]2CCCN2C(=O)[C@H]([C@@H](C)CC)NC(=O)[C@H](CO)NC(=O)[C@H](Cc2ccccc2)NC(=O)[C@H]([C@@H](C)O)NC(=O)[C@@H](NC(=O)[C@@H](NC(=O)CN)[C@@H](C)O)CSSC[C@@H](C(=O)N[C@@H](CC(N)=O)C(=O)N2CCC[C@H]2C(=O)N[C@@H](CC(N)=O)C(=O)O)NC1=O [CH59] (H-GTCTFSIPPICNPN-OH; disulfide 3-11; C-terminus assumed) |
| 40 nM | 90 nM | 104.2 ± 0.8% | 104.5 ± 0.9% | 102 ± 7.6% | – | – | – | 47.6 ± 7.6% | 3 ± 0.2% | 0.7 ± 0.1% | – | – | – | 29.5 ± 4.6% | 7.4 ± 1% | 0% | – | CC[C@H](C)[C@@H]1NC(=O)[C@@H]2CCCN2C(=O)[C@@H]2CCCN2C(=O)[C@H]([C@@H](C)CC)NC(=O)[C@H](CO)NC(=O)[C@H](Cc2ccc(O)cc2)NC(=O)[C@H]([C@@H](C)O)NC(=O)[C@@H](NC(=O)[C@@H](NC(=O)CN)[C@@H](C)O)CSSC[C@@H](C(=O)N[C@@H](CC(N)=O)C(=O)N2CCC[C@H]2C(=O)N[C@@H](CC(N)=O)C(=O)O)NC1=O [CH60] (H-GTCTYSIPPICNPN-OH; disulfide 3-11; C-terminus assumed) |
| 50 nM | 120 nM | 100.9 ± 0.6% | 100.1 ± 0.7% | 97.3 ± 5.4% | – | – | – | 44.2 ± 4.5% | 13.3 ± 1.7% | 1.7% | – | – | – | – | 24.3 ± 2.5% | 0.2% | 86.1 ± 3.3% | CC[C@H](C)[C@@H]1NC(=O)[C@@H]2CCCN2C(=O)[C@@H]2CCCN2C(=O)[C@H]([C@@H](C)CC)NC(=O)[C@H](CO)NC(=O)[C@H](Cc2ccc(O)cc2)NC(=O)[C@H]([C@@H](C)O)NC(=O)[C@@H](NC(=O)[C@@H](NC(=O)CN)[C@@H](C)O)CSSC[C@@H](C(=O)N[C@@H](CC(N)=O)C(=O)N2CCC[C@H]2C(=O)O)NC1=O [CH61] (H-GTCTYSIPPICNP-OH; disulfide 3-11; C-terminus assumed) |
| 60 nM | 150 nM | 100.9 ± 0.8% | – | 102 ± 2.2% | – | – | – | 56.4 ± 2% | 14.2 ± 5.9% | 0.8 ± 0.1% | – | – | – | 40.9 ± 6.8% | 25.1 ± 1.5% | 0.1% | 83.4 ± 8.3% | CC[C@H](C)[C@@H]1NC(=O)[C@@H]2CCCN2C(=O)[C@@H]2CCCN2C(=O)[C@H]([C@@H](C)CC)NC(=O)[C@H](CO)NC(=O)[C@H](Cc2ccc(O)cc2)NC(=O)[C@H]([C@@H](C)O)NC(=O)[C@@H](NC(=O)[C@@H](NC(=O)CN)[C@@H](C)O)CSSC[C@@H](C(=O)N[C@@H](CC(N)=O)C(=O)O)NC1=O [CH62] (H-GTCTYSIPPICN-OH; disulfide 3-11; C-terminus assumed) |
| 1320 nM | 3050 nM | – | – | – | – | – | – | – | – | – | – | – | – | – | – | – | – | CC[C@H](C)[C@@H]1NC(=O)[C@@H]2CCCN2C(=O)[C@@H]2CCCN2C(=O)[C@H]([C@@H](C)CC)NC(=O)[C@H](CO)NC(=O)[C@H](Cc2ccc(O)cc2)NC(=O)[C@H]([C@@H](C)O)NC(=O)[C@@H](NC(=O)[C@@H](N)[C@@H](C)O)CSSC[C@@H](C(=O)N[C@@H](CC(N)=O)C(=O)O)NC1=O [CH63] (H-TCTYSIPPICN-OH; disulfide 2-10; C-terminus assumed) |
| 400 nM | 930 nM | – | – | – | – | – | – | – | – | – | – | – | – | – | – | – | – | CC[C@H](C)[C@@H]1NC(=O)[C@@H]2CCCN2C(=O)[C@@H]2CCCN2C(=O)[C@H]([C@@H](C)CC)NC(=O)[C@H](CO)NC(=O)[C@H](Cc2ccc(O)cc2)NC(=O)[C@H]([C@@H](C)O)NC(=O)[C@@H](NC(=O)[C@@H](N)CCCCN)CSSC[C@@H](C(=O)N[C@@H](Cc2ccccc2)C(=O)O)NC1=O [CH64] (H-KCTYSIPPICF-OH; disulfide 2-10; C-terminus assumed) |
